US7638535B2, “4-(aminomethyl)-piperidine benzamides as 5HT4-antagonists” (Janssen Pharmaceutica N.V., priority 2003, dated 2009)

The compounds below were run against T1, h5-HT4b (Homo sapiens, UniProt Q13639) (assay: 5HT4 antagonism: [3H]GR113808 binding to membranes of h5-HT4b-HEK 293 clone 9 cells). Details: displacement of [3H]GR113808 0.1 nM, h5-HT4b-HEK 293 membranes, 30 min at 25° C.; read-out: pIC50 (5HT4 antagonistic data) (converted).
T1 construct: expressed in transfected cells; host or cells: HEK 293 (clone 9), membrane preparation
T1 sequence (Q13639 whole entry): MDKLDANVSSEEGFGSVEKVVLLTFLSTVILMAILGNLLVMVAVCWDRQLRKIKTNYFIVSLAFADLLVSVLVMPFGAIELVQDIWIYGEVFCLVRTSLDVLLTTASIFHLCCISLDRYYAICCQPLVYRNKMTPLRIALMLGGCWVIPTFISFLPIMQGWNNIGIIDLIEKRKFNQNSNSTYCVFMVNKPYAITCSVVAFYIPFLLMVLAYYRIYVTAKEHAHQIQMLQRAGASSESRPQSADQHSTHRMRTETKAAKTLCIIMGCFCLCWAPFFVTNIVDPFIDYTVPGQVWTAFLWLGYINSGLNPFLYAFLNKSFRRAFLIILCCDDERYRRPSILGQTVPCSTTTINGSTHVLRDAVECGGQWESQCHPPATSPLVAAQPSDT
Method: h5-HT4b-HEK 293 clone 9 cells were cultured in 150 mm Petri dishes and washed twice with cold PBS. The cells were then scraped from the plates and suspended in 50 mM Tris-HCl buffer, pH 7.4 and harvested by centrifugation at 23,500 rpm for 10 minutes. The pellet was resuspended in 5 mM Tris-HCl, pH 7.4 and homogenized with an Ultra Turrax homogenizer. The membranes were collected by centrifugation at 30,000 rpm for 20 min, resuspended in 50 mM Tris-HCl pH 7.4 and stored at −80° C. For the experiment, assay mixtures (0.5 ml) contained 50 μl of the tritiated ligand (5-HT4 antagonist [^3H]GR113808 0.1 nM) and 0.4 ml membrane preparation (15 μg protein/ml). 50 μl of 10% DMSO was added for total binding. 50 μl of 1 μM of (+)-trans-(1-butyl-3-hydroxy-4-piperidinyl)methyl 8-amino-7-chloro-2,3-dihydro-1,4-benzodioxin-5-carboxylate (a proprietary 5HT4 agonist of Janssen Pharmaceutica) was added for determination of non-specific binding.
The [^3H]GR113808 assay buffer was 50 mM HEPES-NaOH, pH 7.4. The mixtures were incubated for 30 min at 25° C. The incubation was terminated by filtration over a Unifilter 96 GF/B presoaked in 0.1% polyethylenimine, followed by six washing steps with 50 mM HEPES-NaOH, pH 7.4.

Q: `CCCCN1CC[C@@H](CNC(=O)c2cc(C)cc3c2OCCCO3)[C@H](O)C1` [compound 164] was tested. Which IC50 did it give?
A: 1 nM

Q: With `Cc1cc2c(c(C(=O)NC[C@@H]3CCN(CCCC#N)C[C@H]3O)c1)OCCCO2` [compound 166] as the compound, how does the IC50 read?
A: 4.27 nM

Q: `CC(C)Nc1cc2c(c(C(=O)NC[C@@H]3CCNC[C@H]3O)c1)OCCCO2` [compound 167] was tested. Which IC50 did it give?
A: 2400 nM

Q: `CC(C)Nc1cc2c(c(C(=O)NC[C@@H]3CCN(CCC4OCCO4)C[C@H]3O)c1)OCCCO2` [compound 169] was tested. Which IC50 did it give?
A: 32.4 nM

Q: For `N#Cc1cc2c(c(C(=O)NC[C@@H]3CCN(CCC4OCCO4)C[C@H]3O)c1)OCCCO2` [compound 170], which IC50 is on record?
A: 16.2 nM

Q: How did the IC50 turn out when `CNCCCCN1CC[C@@H](CNC(=O)c2cc(C#N)cc3c2OCCCO3)[C@H](O)C1` [compound 171] was run?
A: 1.62 nM

Q: Which IC50 does the source give for `CC(C)Nc1cc2c(c(C(=O)NC[C@@H]3CCN(CCCC#N)C[C@H]3O)c1)OCCCO2` [compound 172] here?
A: 107 nM

Q: How did the IC50 turn out when `CNCCCCN1CC[C@@H](CNC(=O)c2cc(C)cc3c2OCCCO3)[C@H](O)C1` [compound 173] was run?
A: 3.02 nM

Q: `CCCCN1CC[C@@H](CNC(=O)c2cc(NC(C)C)cc3c2OCCCO3)[C@H](O)C1` [compound 174] was tested. Which IC50 did it give?
A: 117 nM

Q: How did the IC50 turn out when `N#Cc1cc2c(c(C(=O)NC[C@@H]3CCNC[C@H]3O)c1)OCCCO2` [compound 175] was run?
A: 123 nM

Q: `CCNc1cc2c(c(C(=O)NC[C@@H]3CCN(CCC4OCCO4)C[C@H]3O)c1)OCCCO2` [compound 176] was tested. Which IC50 did it give?
A: 16.2 nM

Q: With `CCNc1cc2c(c(C(=O)NC[C@@H]3CCNC[C@H]3O)c1)OCCCO2` [compound 178] as the compound, how does the IC50 read?
A: 1410 nM

Q: With `COCCCN1CC[C@@H](CNC(=O)c2cc(NC(C)C)cc3c2OCCCO3)[C@H](O)C1` [compound 179] as the compound, how does the IC50 read?
A: 63.1 nM

Q: For `CC(C)Nc1cc2c(c(C(=O)NC[C@@H]3CCN(CCCO)C[C@H]3O)c1)OCCCO2` [compound 180], which IC50 is on record?
A: 43.7 nM

Q: Which IC50 does the source give for `CCCCN1CC[C@@H](CNC(=O)c2cc(N)c(Br)c3c2OCCCO3)[C@H](O)C1` [compound 181] here?
A: 8.51 nM

Q: How did the IC50 turn out when `CCNc1cc2c(c(C(=O)NC[C@@H]3CCN(CCCC#N)C[C@H]3O)c1)OCCCO2` [compound 182] was run?
A: 100 nM

Q: With `Nc1cc(C(=O)NC[C@@H]2CCNC[C@H]2O)c2c(c1Cl)OCCCO2` [compound 188] as the compound, how does the IC50 read?
A: 832 nM

Q: How did the IC50 turn out when `Cc1cc2c(c(C(=O)NC[C@@H]3CCN(CCCNS(C)(=O)=O)C[C@H]3O)c1)OCCCO2` [compound 189] was run?
A: 1.86 nM

Q: Which IC50 does the source give for `COCc1cc2c(c(C(=O)NC[C@@H]3CCNC[C@H]3O)c1)OCCCO2` [compound 190] here?
A: 269 nM

Q: `Cc1cc2c(c(C(=O)NC[C@@H]3CCN(CCCC(=O)O)C[C@H]3O)c1)OCCCO2` [compound 192] was tested. Which IC50 did it give?
A: 30.9 nM

Q: With `Cc1cc2c(c(C(=O)NC[C@@H]3CCN(CCCCOc4ccc(S(N)(=O)=O)cc4)C[C@H]3O)c1)OCCCO2` [compound 194] as the compound, how does the IC50 read?
A: 0.589 nM

Q: With `CCCCN1CC[C@@H](CNC(=O)c2cc(OC)cc3c2OCCCO3)[C@H](O)C1` [compound 195] as the compound, how does the IC50 read?
A: 3.63 nM

Q: For `Cc1cc2c(c(C(=O)NC[C@@H]3CCN(CCCOc4ccc(S(N)(=O)=O)cc4)C[C@H]3O)c1)OCCCO2` [compound 196], which IC50 is on record?
A: 0.427 nM

Q: With `Cc1cc2c(c(C(=O)NC[C@@H]3CCN(CCOc4ccc(S(N)(=O)=O)cc4)C[C@H]3O)c1)OCCCO2` [compound 198] as the compound, how does the IC50 read?
A: 1.2 nM

Q: How did the IC50 turn out when `CNCCCCN1CC[C@@H](CNC(=O)c2cc(OC)cc3c2OCCCO3)[C@H](O)C1` [compound 199] was run?
A: 12.3 nM

Q: How did the IC50 turn out when `Cc1cc2c(c(C(=O)NC[C@@H]3CCN(CCC#N)C[C@H]3O)c1)OCCCO2` [compound 201] was run?
A: 14.5 nM

Q: How did the IC50 turn out when `CO[C@@H]1CNCC[C@H]1CNC(=O)c1cc(C#N)cc2c1OCCCO2` [compound 203] was run?
A: 1350 nM

Q: With `CO[C@@H]1CNCC[C@H]1CNC(=O)c1cc(C)cc2c1OCCCO2` [compound 204] as the compound, how does the IC50 read?
A: 83.2 nM

Q: With `Cc1cc2c(c(C(=O)NC[C@@H]3CCN(CCCS(C)(=O)=O)C[C@H]3O)c1)OCCCO2` [compound 205] as the compound, how does the IC50 read?
A: 2.75 nM

Q: `COCCCN1CC[C@@H](CNC(=O)c2cc(C)cc3c2OCCCO3)[C@H](OC)C1` [compound 206] was tested. Which IC50 did it give?
A: 3.16 nM

Q: Which IC50 does the source give for `CO[C@@H]1CN(CCCO)CC[C@H]1CNC(=O)c1cc(C#N)cc2c1OCCCO2` [compound 207] here?
A: 37.2 nM
